According to PubChem BioAssay AID1259407 (Chemical Carcinogenesis Research Information System (CCRIS), 2018):
The source made the active and inactive calls. The rule behind the calls is not given here.

System: CCRIS mutagenicity, Ames/micronucleus/aberration tests
Assay: CCRIS mutagenicity studies
[1] = Test System: AMES SALMONELLA TYPHIMURIUM, Strain/Indicator: TA100, Metabolic Activation: NONE, Method: PREINCUBATION
[2] = Test System: AMES SALMONELLA TYPHIMURIUM, Strain/Indicator: TA98, Metabolic Activation: NONE, Method: PREINCUBATION
[3] = Test System: AMES SALMONELLA TYPHIMURIUM, Strain/Indicator: TA1535, Metabolic Activation: NONE, Method: PREINCUBATION

Measured: mutagenic call

c1ccc2c(c1)Cc1ccccc1-2
inactive: End Point: IN VITRO CHROMOSOMAL ABERRATIONS, Test System: CHINESE HAMSTER LUNG (CHL) CELLS, Metabolic Activation: NONE inactive; negative | End Point: IN VITRO MICRONUCLEUS, Test System: CHO CELLS, Metabolic Activation: RAT, LIVER, S-9, AROCLOR 1254 inactive; negative | Test System: AMES SALMONELLA TYPHIMURIUM, Strain/Indicator: TA97, Metabolic Activation: NONE, Method: STANDARD PLATE inactive; negative | Test System: AMES SALMONELLA TYPHIMURIUM, Strain/Indicator: TA97, Metabolic Activation: RAT, LIVER, S-9, PCB, Method: STANDARD PLATE inactive; negative | Test System: AMES SALMONELLA TYPHIMURIUM, Strain/Indicator: TA98, Metabolic Activation: NONE, Method: STANDARD PLATE inactive; negative | Test System: AMES SALMONELLA TYPHIMURIUM, Strain/Indicator: TA98, Metabolic Activation: RAT, LIVER, S-9, PCB, Method: STANDARD PLATE inactive; negative | Test System: AMES SALMONELLA TYPHIMURIUM, Strain/Indicator: TA100, Metabolic Activation: NONE, Method: STANDARD PLATE inactive; negative | Test System: AMES SALMONELLA TYPHIMURIUM, Strain/Indicator: TA100, Metabolic Activation: RAT, LIVER, S-9, PCB, Method: STANDARD PLATE inactive; negative | Test System: UDS RAT HEPATOCYTES, Strain/Indicator: BROMODEOXYURIDINE INCORP, Metabolic Activation: NONE, Method: FLOW CYTOMETRIC ANALYSIS inactive; negative
active: End Point: IN VITRO CHROMOSOMAL ABERRATIONS, Test System: CHINESE HAMSTER LUNG (CHL) CELLS, Metabolic Activation: RAT, LIVER, S-9, KC-400 active; positive | Test System: MOUSE LYMPHOMA, Strain/Indicator: L5178Y (TK+/TK-), Metabolic Activation: NONE, Method: SUSPENSION/PLATE active; positive | Test System: MOUSE LYMPHOMA, Strain/Indicator: L5178Y (TK+/TK-), Metabolic Activation: RAT, LIVER, S-9, AROCLOR 1254, Method: SUSPENSION/PLATE active; positive

CNC(=O)Oc1cccc2c1OC(C)(C)O2
active: End Point: In vitro Chromosomal aberrations, Test System: Human lymphocytes, Metabolic Activation: Activation by unspecified source active; positive
inactive: End Point: IN VIVO MICRONUCLEUS, Test System: BONE MARROW POLYCHROMATIC ERYTHROCYTES, Species: RABBIT, Strain/Sex: HYBRID HYLA/MALE, FEMALE, Route: ORAL (GAVAGE) inactive; negative | End Point: In vitro Chromosomal aberrations, Test System: Human lymphocytes, Metabolic Activation: None inactive; negative

N[C@@H](CS/C(Cl)=C(\Cl)C(Cl)(Cl)Cl)C(=O)O
active: [1] active; positive | Test System: AMES SALMONELLA TYPHIMURIUM, Strain/Indicator: TA100, Metabolic Activation: RAT, LIVER OR KIDNEY, MICROSOMES, Method: PREINCUBATION active; positive

O=[N+]([O-])c1ccnc2ccccc12
active: Test System: AMES SALMONELLA TYPHIMURIUM, Strain/Indicator: TA1538, Metabolic Activation: RAT, LIVER, S-9, KC500 OR PHENOBARBITAL, Method: LIQUID SUSPENSION active; positive | Test System: UDS RODENT PRIMARY CELLS, Strain/Indicator: THY INCORP (NON-S-PHASE), Metabolic Activation: NONE, Method: AUTORADIOGRAPHY active; positive

Oc1cc(Cl)c(Cl)c(Cl)c1Cl
active: End Point: IN VITRO CHROMOSOMAL ABERRATIONS, Test System: CHINESE HAMSTER LUNG CELLS (CHL), Metabolic Activation: RAT, LIVER, S-9, KC-400 active; positive (structural changes) | End Point: IN VITRO CHROMOSOMAL ABERRATIONS, Test System: CHINESE HAMSTER OVARY CELLS (CHO), Metabolic Activation: RAT, LIVER, S-9, AROCLOR 1254 active; positive (structural changes)
inactive: End Point: IN VITRO CHROMOSOMAL ABERRATIONS, Test System: CHINESE HAMSTER LUNG CELLS (CHL), Metabolic Activation: NONE inactive; negative | End Point: IN VITRO CHROMOSOMAL ABERRATIONS, Test System: CHINESE HAMSTER OVARY CELLS (CHO), Metabolic Activation: NONE inactive; negative | Test System: AMES SALMONELLA TYPHIMURIUM, Strain/Indicator: TA97, Metabolic Activation: HAMSTER, LIVER, S-9, AROCLOR 1254 (10 OR 30%), Method: PREINCUBATION inactive; negative | Test System: AMES SALMONELLA TYPHIMURIUM, Strain/Indicator: TA97, Metabolic Activation: NONE, Method: PREINCUBATION inactive; negative | Test System: AMES SALMONELLA TYPHIMURIUM, Strain/Indicator: TA97, Metabolic Activation: RAT, LIVER, S-9, AROCLOR 1254 (10 OR 30%), Method: PREINCUBATION inactive; negative | Test System: AMES SALMONELLA TYPHIMURIUM, Strain/Indicator: TA98, Metabolic Activation: HAMSTER, LIVER, S-9, AROCLOR 1254 (10 OR 30%), Method: PREINCUBATION inactive; negative | [2] inactive; negative | Test System: AMES SALMONELLA TYPHIMURIUM, Strain/Indicator: TA98, Metabolic Activation: RAT, LIVER, S-9, AROCLOR 1254 (10 OR 30%), Method: PREINCUBATION inactive; negative | Test System: AMES SALMONELLA TYPHIMURIUM, Strain/Indicator: TA100, Metabolic Activation: HAMSTER, LIVER, S-9, AROCLOR 1254 (10 OR 30%), Method: PREINCUBATION inactive; negative | [1] inactive; negative | Test System: AMES SALMONELLA TYPHIMURIUM, Strain/Indicator: TA100, Metabolic Activation: RAT, LIVER, S-9, AROCLOR 1254 (10 OR 30%), Method: PREINCUBATION inactive; negative | Test System: AMES SALMONELLA TYPHIMURIUM, Strain/Indicator: TA1535, Metabolic Activation: HAMSTER, LIVER, S-9, AROCLOR 1254 (10 OR 30%), Method: PREINCUBATION inactive; negative | [3] inactive; negative | Test System: AMES SALMONELLA TYPHIMURIUM, Strain/Indicator: TA1535, Metabolic Activation: RAT, LIVER, S-9, AROCLOR 1254 (10 OR 30%), Method: PREINCUBATION inactive; negative

C[C@@H]1CC2c3cc(Br)cc4c3c(cn4CC3CC3)C[C@H]2N(C)C1 (stereo partly drawn)
inactive: Test System: AMES SALMONELLA TYPHIMURIUM, Strain/Indicator: TA100, Metabolic Activation: RAT, LIVER, S-9, AROCLOR 1254, Method: STANDARD PLATE inactive; negative

CC(O)CN(CC(C)O)CC(C)O (stereo not drawn)
inactive: Test System: AMES SALMONELLA TYPHIMURIUM, Strain/Indicator: TA98, Metabolic Activation: HAMSTER, LIVER, S-9, AROCLOR 1254 (10%), Method: PREINCUBATION inactive; negative | [2] inactive; negative | Test System: AMES SALMONELLA TYPHIMURIUM, Strain/Indicator: TA98, Metabolic Activation: RAT, LIVER, S-9, AROCLOR 1254 (10%), Method: PREINCUBATION inactive; negative | Test System: AMES SALMONELLA TYPHIMURIUM, Strain/Indicator: TA100, Metabolic Activation: HAMSTER, LIVER, S-9, AROCLOR 1254 (10%), Method: PREINCUBATION inactive; negative | [1] inactive; negative | Test System: AMES SALMONELLA TYPHIMURIUM, Strain/Indicator: TA100, Metabolic Activation: RAT, LIVER, S-9, AROCLOR 1254 (10%), Method: PREINCUBATION inactive; negative | Test System: AMES SALMONELLA TYPHIMURIUM, Strain/Indicator: TA1535, Metabolic Activation: HAMSTER, LIVER, S-9, AROCLOR 1254 (10%), Method: PREINCUBATION inactive; negative | [3] inactive; negative | Test System: AMES SALMONELLA TYPHIMURIUM, Strain/Indicator: TA1535, Metabolic Activation: RAT, LIVER, S-9, AROCLOR 1254 (10%), Method: PREINCUBATION inactive; negative | Test System: AMES SALMONELLA TYPHIMURIUM, Strain/Indicator: TA1537, Metabolic Activation: HAMSTER, LIVER, S-9, AROCLOR 1254 (10%), Method: PREINCUBATION inactive; negative | Test System: AMES SALMONELLA TYPHIMURIUM, Strain/Indicator: TA1537, Metabolic Activation: NONE, Method: PREINCUBATION inactive; negative | Test System: AMES SALMONELLA TYPHIMURIUM, Strain/Indicator: TA1537, Metabolic Activation: RAT, LIVER, S-9, AROCLOR 1254 (10%), Method: PREINCUBATION inactive; negative
